Laboratory results: patent publication US20140037659A1 (Yissum Research Development Company of the Hebrew …, priority 2011, published 2014)

Assays:
MDSCs [1] = settings: recently demonstrated, reference 30; cited from earlier work
MDSCs [2] = assay: 5FU treatment of BCG-treated mice displaying chronic inflammation; format: in vivo
Procedure: Normal C57B116 mice repeatedly exposed to heat-killed BCG were used as the mouse model for chronic inflammation^1. BCG was administered by three subcutaneous injections at 1 wk intervals, 100 μg per animal/dose; the first two doses were administrated with IFA (Incomplete Freund's adjuvant), and subsequent injections included heat-killed BCG in PBS. Unless stated otherwise, splenocytes were collected 2-3 days after the last injection. Control mice remained untreated. For experiments with chicken OVA (Sigma) as antigen, the same protocol was maintained: For a Th1 response BCG was administered as above but with OVA. For a Th2 response, the first and second injections were with 100 μg OVA adsorbed to Al(OH)3 (alum; Thermo), and the third injection was with 100 μg OVA in PBS. Experimental groups included at least three mice, and each experiment was repeated at least three times.
BCG-treated mice received three i.p. injections of 5-fluorouracil (5FU); The first 5FU injection (1 mg/mouse) was given at the day of the second BCG treatment and the second 5FU injection was given four days later. The third 5FU injection (0.5 mg/mouse) was given at the day of the third BCG treatment.
All the antibodies were purchased from Biolegend.

[3] = biological target: T1, SNX9 (sorting nexin 9 protein), endogenous in EL4 T cell line (Mus musculus, UniProt Q91VH2 1-595); assay: immunoprecipitation of EL4 lysate with anti-CD3δ, immunoblot for SNX9
T1 construct: Endogenous protein in a Triton X-100 lysate of EL4 T cells; also called sorting nexin-9 [Mus musculus]

[4] = splenic cells of BCG+5FU treated mice vs BCG treated mice, immunoblotting, FIG. 14A

T1 sequence (Q91VH2 whole entry): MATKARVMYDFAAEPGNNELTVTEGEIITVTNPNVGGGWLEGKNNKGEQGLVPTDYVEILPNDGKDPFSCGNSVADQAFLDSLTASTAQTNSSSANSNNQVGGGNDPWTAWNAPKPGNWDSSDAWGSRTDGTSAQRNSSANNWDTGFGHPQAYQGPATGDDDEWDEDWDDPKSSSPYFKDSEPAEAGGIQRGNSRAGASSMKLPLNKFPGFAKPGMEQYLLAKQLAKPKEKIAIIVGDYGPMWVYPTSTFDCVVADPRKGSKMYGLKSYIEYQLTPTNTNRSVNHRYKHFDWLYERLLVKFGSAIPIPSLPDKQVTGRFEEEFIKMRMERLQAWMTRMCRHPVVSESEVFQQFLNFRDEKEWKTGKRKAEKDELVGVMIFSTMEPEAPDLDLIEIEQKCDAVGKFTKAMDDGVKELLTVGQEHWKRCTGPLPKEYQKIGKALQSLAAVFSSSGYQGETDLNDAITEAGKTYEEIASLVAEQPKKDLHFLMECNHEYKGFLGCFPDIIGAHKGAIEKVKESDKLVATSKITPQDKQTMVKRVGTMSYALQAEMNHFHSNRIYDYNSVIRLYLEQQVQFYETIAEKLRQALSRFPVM

Row | binding result [3] | Molecule | effect on MDSCs (MDSCs [1]) | MDSCs levels (Gr1+Mac1+ double-positive cells) (MDSCs [2]; FACS of cells from BCG+5FU treated mice, FIG. 14B, C) | SNX9 expression levels (MDSCs [2]; [4]) | ζ chain expression levels (MDSCs [2]; [4])
1 |  | O=c1[nH]cc(F)c(=O)[nH]1 [5FU, 5-fluorouracil] | cytotoxic effect on MDSCs | Eliminates MDSCs | recovery | recovery
2 | no binding | CD3δ of EL4 T cell line (receptor, UniProt P04235 22-173, looked up, Immunoprecipitated from EL4 lysate with anti-CD3δ antibody) FKIQVTEYEDKVFVTCNTSVMHLDGTVEGWFAKNKTLNLGKGVLDPRGIYLCNGTEQLAKVVSSVQVHYRMCQNCVELDSGTMAGVIFIDLIATLLLALGVYCFAGHETGRPSGAAEVQALLKNEQLYQPLRDREDTQYSRLGGNWPRNKKS |  |  |  | 
